Consider 50 molecules from patent publication US7262212B2, “2,3-dihydro-6-nitroimidazo[2,1-b]oxazoles” (Otsuka Pharmaceutical Co., Ltd., priority 2002, dated 2007).

On to `C[C@]1(COc2ccc(C(=O)N3CCN(Cc4ccc(OC(F)(F)F)cc4)CC3)cc2)Cn2cc([N+](=O)[O-])nc2O1`, for which the melting point was in the range of 155 to 156 °C.

On to `C[C@]1(CN2CCN(C(=O)N3CC=C(c4ccc(C(F)(F)F)cc4)CC3)CC2)Cn2cc([N+](=O)[O-])nc2O1`, for which the melting point lay in the range of 168.4 to 171.7 °C.

`CC1(CN2CCN(C(=O)c3ccc(Cl)cc3)CC2)Cn2cc([N+](=O)[O-])nc2O1` (centres unmarked) displayed a melting point of 150 to 155.2 °C.

Molecule `CC1(CN2CCN(C(=O)c3ccc(C(F)(F)F)cc3)CC2)Cn2cc([N+](=O)[O-])nc2O1` (centres unmarked) returned a melting point of 161 to 162 °C.

Consider `C[C@]1(COc2ccc(N3CCN(C(=O)OCc4cc5cc(Cl)ccc5o4)CC3)cc2)Cn2cc([N+](=O)[O-])nc2O1`, for which the melting point was in the range of 195 to 197 °C.

`C[C@]1(CN2CCN(Cc3ccc(OC(F)(F)F)cc3)CC2)Cn2cc([N+](=O)[O-])nc2O1`: the melting point fell in the range of 137 to 138 °C.

Consider `C[C@]1(COC(=O)N(c2ccc(Cl)cc2)C2CCCCC2)Cn2cc([N+](=O)[O-])nc2O1`, for which the melting point lay within 175 to 177 °C.

Regarding `O=[N+]([O-])c1cn2c(n1)O[C@@H](CN1CCN(c3ccc(F)cc3)CC1)C2`, the melting point fell in the range of 178.5 to 179.5 °C.

For `C[C@]1(CN2CCN(C3CCN(C(=O)OCc4ccc(OC(F)(F)F)cc4)CC3)CC2)Cn2cc([N+](=O)[O-])nc2O1`, the melting point is 105 to 106 °C.

In turn, `CN(Cc1ccc(Cl)cc1)C[C@@]1(C)Cn2cc([N+](=O)[O-])nc2O1` showed a melting point of 129 to 129.5 °C.

Consider `O=[N+]([O-])c1cn2c(n1)OC1(CCN(c3ccc(Cl)cc3)CC1)C2`, for which the melting point was 242 to 245 °C.

For the molecule `CC1(CN2CCC(Cc3ccc(OC(F)(F)F)cc3)CC2)Cn2cc([N+](=O)[O-])nc2O1` (centres unmarked), the melting point was 143.5 to 145 °C.

As to `C[C@]1(CN2CCN(N=Cc3ccc(C(F)(F)F)cc3)CC2)Cn2cc([N+](=O)[O-])nc2O1` [Example 504], the melting point is 201 to 202.3 °C (dec.).

`CC1(CNC(=O)OCc2ccc(Cl)cc2)Cn2cc([N+](=O)[O-])nc2O1` (centres unmarked) gave a melting point of 221 to 221.8 °C.

On to `C[C@]1(CN2CCN(C(=O)CSc3ccc(Cl)cc3)CC2)Cn2cc([N+](=O)[O-])nc2O1`, for which the melting point lay within 142 to 145 °C.

As to `CC1(CCCN2CCN(C(C)(C)C)C(=O)C2)Cn2cc([N+](=O)[O-])nc2O1` (centres unmarked), the melting point was 147 to 149 °C (dec.).

As to `CC1(COC(=O)N2CCN(c3ccc(OC(F)(F)F)cc3)CC2)Cn2cc([N+](=O)[O-])nc2O1` (centres unmarked), the melting point lay within 138 to 140 °C.

In the case of `C[C@]1(COC(=O)N2CC=C(c3ccc(C(F)(F)F)cc3)CC2)Cn2cc([N+](=O)[O-])nc2O1`, the melting point was 169 to 171 °C.

`C[C@]1(CN2CCN(S(=O)(=O)CCCCc3ccc(Cl)cc3)CC2)Cn2cc([N+](=O)[O-])nc2O1` gave a melting point of 176 to 177 °C.

The molecule `CC1(CN2C(=O)C(F)(F)c3ccccc32)Cn2cc([N+](=O)[O-])nc2O1` (centres unmarked) displayed a melting point of 202 to 206 °C.

Turning to `O=C(Nc1ccccc1)N1CCC2(CC1)Cn1cc([N+](=O)[O-])nc1O2`, the melting point was 229 to 232 °C (dec.).

For `CC1(CN2CCC(Cc3ccc(Cl)cc3)CC2)Cn2cc([N+](=O)[O-])nc2O1` (centres unmarked), the melting point was in the range of 109 to 110.5 °C.

On to `CC(C)(C)OC(=O)NC1CCN(C[C@@]2(C)Cn3cc([N+](=O)[O-])nc3O2)CC1`, for which the melting point is 158.5 to 160.7 °C.

As to `C[C@]1(CN2CCC(N3CCN(CC=Cc4ccc(OC(F)(F)F)cc4)CC3)CC2)Cn2cc([N+](=O)[O-])nc2O1`, the melting point lay in the range of 174 to 175 °C.

With `CC1(COC(=O)Nc2ccc(Cl)cc2)Cn2cc([N+](=O)[O-])nc2O1` (centres unmarked), the melting point lay within 179 to 181 °C.

`O=[N+]([O-])c1cn2c(n1)OC(CN1CCN(Cc3ccc(-c4ccccc4)cc3)CC1)C2` (centres unmarked): the melting point is 183 to 185 °C (dec.).

Consider `C[C@]1(CN2CCN(C(=O)N3CCC(c4ccc(C(F)(F)F)cc4)CC3)CC2)Cn2cc([N+](=O)[O-])nc2O1`, for which the melting point lay in the range of 179.1 to 181.9 °C.

`CC1(CN2CCN(C(=O)c3cccc(C(F)(F)F)c3)CC2)Cn2cc([N+](=O)[O-])nc2O1` (centres unmarked) showed a melting point of 122 to 124 °C.

As to `CC1(Cn2c(=O)n(-c3ccc(F)cc3)c3ccccc32)Cn2cc([N+](=O)[O-])nc2O1` (centres unmarked), the melting point lay in the range of 254.1 to 254.7 °C.

Turning to `C[C@]1(CO)Cn2cc([N+](=O)[O-])nc2O1`, the melting point was 162 to 163 °C.

In turn, `C[C@]1(COc2ccc(N3CC[S+]([O-])CC3)cc2)Cn2cc([N+](=O)[O-])nc2O1` registered a melting point of 198 to 200 °C.

Consider `C[C@]1(COc2ccc(-n3cncn3)cc2)Cn2cc([N+](=O)[O-])nc2O1`, for which the melting point was 236 to 238.7 °C.

`CC1(Cn2nc(-c3ccc(-c4ccccc4)cc3)oc2=O)Cn2cc([N+](=O)[O-])nc2O1` (centres unmarked): the melting point is 248 to 249 °C.

Regarding `CC1(COc2nc3ccccc3o2)Cn2cc([N+](=O)[O-])nc2O1` (centres unmarked), the melting point lay in the range of 200 to 203 °C.

For `C[C@]1(CN2CCN(C(=O)Nc3ccc(C(F)(F)F)cc3)CC2)Cn2cc([N+](=O)[O-])nc2O1`, the melting point was in the range of 150 to 152.5 °C.

Molecule `C[C@]1(CN2CCC(NCCc3ccc(C(F)(F)F)cc3)CC2)Cn2cc([N+](=O)[O-])nc2O1` came in with a melting point of 80.7 to 84.2 °C.

In turn, `C[C@]1(COC(=O)N(c2ccc(Cl)cc2)c2ccc(Cl)cc2)Cn2cc([N+](=O)[O-])nc2O1` came in with a melting point of 200 to 201 °C.

Molecule `CC1(COc2ccc(N3CCC(Oc4ccc(Cl)cc4)CC3)cc2)Cn2cc([N+](=O)[O-])nc2O1` (centres unmarked) had a melting point of 151 to 152.3 °C.

The molecule `CCOC(=O)c1ccc2c(c1)n(CC1(C)Cn3cc([N+](=O)[O-])nc3O1)c(=O)n2C` (centres unmarked) registered a melting point of 265.8 to 266.7 °C.

With `CC(C)(C)OC(=O)N1CCN(c2ccc(OC[C@@]3(C)Cn4cc([N+](=O)[O-])nc4O3)cc2)CC1`, the melting point fell in the range of 230 to 232 °C.

Consider `CN(C(=O)OCc1ccccc1)C1CCN(CC2(C)Cn3cc([N+](=O)[O-])nc3O2)CC1` (centres unmarked), for which the melting point was in the range of 138.7 to 139.2 °C.

`C[C@]1(CN2CCC(OCCc3ccc(Cl)cc3)CC2)Cn2cc([N+](=O)[O-])nc2O1` displayed a melting point of 92.5 to 94 °C.

Regarding `CC(C)(C)OC(=O)N1CCC(c2ccc(OC[C@@]3(C)Cn4cc([N+](=O)[O-])nc4O3)cc2)CC1`, the melting point was 227.5 to 228.3 °C (dec.).

On to `C[C@]1(CN2CCN(C(=O)OCC=Cc3ccc(OC(F)(F)F)cc3)CC2)Cn2cc([N+](=O)[O-])nc2O1`, for which the melting point was 91 to 93 °C.

For the molecule `CC(C)(C)OC(=O)N1CC=C(c2ccc(OC[C@@]3(C)Cn4cc([N+](=O)[O-])nc4O3)cc2)CC1`, the melting point was 183 to 189 °C (dec.).

For the molecule `O=C(Oc1ccccc1)N1CCC2(CC1)Cn1cc([N+](=O)[O-])nc1O2`, the melting point was 242 to 244 °C.

In turn, `CC(C)(C)OC(=O)N1CCN(CC(=O)N2CCC3(CC2)Cn2cc([N+](=O)[O-])nc2O3)CC1` showed a melting point of 211 to 213 °C.

For `CC1(Cn2c(=O)oc3ccc(F)cc32)Cn2cc([N+](=O)[O-])nc2O1` (centres unmarked), the melting point fell in the range of 246.2 to 246.8 °C.

Molecule `CC1(CN2CCN(C(=O)N3CCC(c4ccc(Cl)cc4)CC3)CC2)Cn2cc([N+](=O)[O-])nc2O1` (centres unmarked) showed a melting point of 186 to 187 °C.

In turn, `O=C(NCc1ccc(OC(F)(F)F)cc1)N1CCC2(CC1)Cn1cc([N+](=O)[O-])nc1O2` yielded a melting point of 223 to 225 °C.
